Measurements taken from BindingDB's records for doi:10.1016/j.ejmech.2015.07.016 (China Pharmaceutical University, 2015).
Square brackets hold non-standard residues; d marks the D form. Peptide text beside a SMILES is read from it. pGlu = O=C1CC[C@@H](C(=O)O)N1

Legend:
[1] = Antagonist activity at GP2b/3a receptor in New Zealand rabbit platelet-rich plasma assessed as inhibition of ADP-induced platelet aggregation preincubated for 1 min followed by addition of ADP by aggregometer
[2] = Antagonist activity at GP2b/3a receptor in New Zealand rabbit platelet-rich plasma assessed as inhibition of U46619-induced platelet aggregation preincubated for 1 min followed by addition of ADP by aggregometer
[3] = Antagonist activity at GP2b/3a receptor in New Zealand rabbit platelet-rich plasma assessed as inhibition of collagen-induced platelet aggregation preincubated for 1 min followed by addition of ADP by aggregometer
[4] = Antagonist activity at GP2b/3a receptor in New Zealand rabbit platelet-rich plasma assessed as inhibition of thrombin-induced platelet aggregation preincubated for 1 min followed by addition of ADP by aggregometer

SMILES	IC50 [1] [µM]	further results
O=C(O)[C@H](Cc1c[nH]c2ccc(OCCCCC3CCNCC3)cc12)NS(=O)(=O)c1ccccc1	95.7	
Cc1ccc(S(=O)(=O)N[C@@H](Cc2c[nH]c3ccc(OCCCCC4CCNCC4)cc23)C(=O)O)cc1	108	
COc1ccc(S(=O)(=O)N[C@@H](Cc2c[nH]c3ccc(OCCCCC4CCNCC4)cc23)C(=O)O)cc1	> 500	
COc1ccc(C(=O)N[C@@H](Cc2c[nH]c3ccc(OCCCCC4CCNCC4)cc23)C(=O)O)cc1	> 500	
O=C(N[C@@H](Cc1c[nH]c2ccc(OCCCCC3CCNCC3)cc12)C(=O)O)c1cccc(F)c1	96.1	
O=C(O)[C@H](Cc1c[nH]c2ccc(OCCCCC3CCNCC3)cc12)NS(=O)(=O)c1ccc(Br)cc1	24.8	IC50 [2]: 590 µM; IC50 [3]: 683 µM; IC50 [4]: 124 µM
O=C(N[C@@H](Cc1c[nH]c2ccc(OCCCCC3CCNCC3)cc12)C(=O)O)c1ccc(F)cc1	94.4	
O=C(N[C@@H](Cc1c[nH]c2ccc(OCCCCC3CCNCC3)cc12)C(=O)O)c1ccc([N+](=O)[O-])cc1	488	
O=C(O)[C@H](Cc1c[nH]c2ccc(OCCCCC3CCNCC3)cc12)NS(=O)(=O)c1ccc(F)cc1	93.1	
O=C(O)[C@H](Cc1c[nH]c2ccc(OCCCCC3CCNCC3)cc12)NS(=O)(=O)c1ccc([N+](=O)[O-])cc1	425	
O=C(N[C@@H](Cc1c[nH]c2ccc(OCCCCC3CCNCC3)cc12)C(=O)O)c1cc(Cl)cc(Cl)c1	86.5	
O=C(N[C@@H](Cc1c[nH]c2ccc(OCCCCC3CCNCC3)cc12)C(=O)O)c1ccccc1	> 500	
NC(=O)C[C@H](NC(=O)[C@@H]1CCC(=O)N1)C(=O)N[C@@H](Cc1c[nH]c2ccccc12)C(=O)O ([pGlu]-Asn-Trp-OH)	> 500	
